# From ChEMBL document CHEMBL1154040, “Synthesis and evaluation of novel F-18 labeled fluoroarylvaline derivatives: potential PET imaging agents for tumor detection” (Bioorg Med Chem Lett, 2009)
# How the values were obtained:
# [1] = Ratio of drug level in S180 tumor to muscleKM mouse at 240 to 370 kBq, iv after 30 mins; type: ADME, organism-based, KM; conditions: in vivo, 0.5 h
# [2] = Ratio of drug level in S180 tumor to brain KM mouse at 240 to 370 kBq, iv after 5 mins; type: ADME, organism-based; conditions: in vivo
# [3] = Ratio of drug level in S180 tumor to blood in KM mouse at 240 to 370 kBq, iv after 5mins; type: ADME, organism-based; conditions: tumour
# Blood [4] = assay: Biodistribution in S180 tumor-bearing KM mouse blood assessed per gram of tissue weight at 240 to 370 kBq, iv after 5 mins; type: ADME, organism-based; conditions: in vivo
# Brain [5] = assay: Biodistribution in S180 tumor-bearing KM mouse brain assessed per gram of tissue at 240 to 370 kBq, iv after 30 mins; type: ADME, organism-based; conditions: in vivo, 0.5 h
# Lung [6] = assay: Biodistribution in S180 tumor-bearing KM mouse lung assessed per gram of tissue at 240 to 370 kBq, iv after 30 mins; type: ADME, organism-based; conditions: in vivo, 0.5 h
# [7] = Biodistribution in S180 tumor present in KM mouse assessed per gram of tissue at 240 to 370 kBq, iv after 5 mins; type: ADME, organism-based, Neoplasm; conditions: in vivo
# [8] = Ratio of drug level in S180 tumor to brain KM mouse at 240 to 370 kBq, iv after 30 mins; type: ADME, organism-based; conditions: in vivo, 0.5 h
# Blood [9] = assay: Biodistribution in S180 tumor-bearing KM mouse blood assessed per gram of tissue weight at 240 to 370 kBq, iv after 60 mins; type: ADME, organism-based; conditions: in vivo, 1 h
# Brain [10] = assay: Biodistribution in S180 tumor-bearing KM mouse brain assessed per gram of tissue at 240 to 370 kBq, iv after 60 mins; type: ADME, organism-based; conditions: in vivo, 1 h
# [11] = Ratio of drug level in S180 tumor to muscleKM mouse at 240 to 370 kBq, iv after 120 mins; type: ADME, organism-based, KM; conditions: in vivo, 2 h
# Liver [12] = assay: Biodistribution in S180 tumor-bearing KM mouse liver assessed per gram of tissue weight at 240 to 370 kBq, iv after 15 mins; type: ADME, organism-based; conditions: in vivo, 0.25 h
# [13] = Biodistribution in S180 tumor present in KM mouse assessed per gram of tissue at 240 to 370 kBq, iv after 15 mins; type: ADME, organism-based, Neoplasm; conditions: in vivo, 0.25 h
# Liver [14] = assay: Biodistribution in S180 tumor-bearing KM mouse liver assessed per gram of tissue weight at 240 to 370 kBq, iv after 5 mins; type: ADME, organism-based; conditions: in vivo
# Kidney [15] = assay: Biodistribution in S180 tumor-bearing KM mouse kidney assessed per gram of tissue at 240 to 370 kBq, iv after 60 mins; type: ADME, organism-based; conditions: in vivo, 1 h
# Kidney [16] = assay: Biodistribution in S180 tumor-bearing KM mouse kidney assessed per gram of tissue at 240 to 370 kBq, iv after 15 mins; type: ADME, organism-based; conditions: in vivo, 0.25 h
# Spleen [17] = assay: Biodistribution in S180 tumor-bearing KM mouse spleen assessed per gram of tissue at 240 to 370 kBq, iv after 5 mins; type: ADME, organism-based; conditions: in vivo
# [18] = Ratio of drug level in S180 tumor to brain KM mouse at 240 to 370 kBq, iv after 120 mins; type: ADME, organism-based; conditions: in vivo, 2 h
# Heart [19] = assay: Biodistribution in S180 tumor-bearing KM mouse heart assessed per gram of tissue weight at 240 to 370 kBq, iv after 5 mins; type: ADME, organism-based; conditions: in vivo
# [20] = Ratio of drug level in S180 tumor to muscleKM mouse at 240 to 370 kBq, iv after 15 mins; type: ADME, organism-based, KM; conditions: in vivo, 0.25 h
# [21] = Ratio of drug level in S180 tumor to brain KM mouse at 240 to 370 kBq, iv after 60 mins; type: ADME, organism-based; conditions: in vivo, 1 h
# Muscle tissue [22] = assay: Biodistribution in S180 tumor-bearing KM mouse muscle assessed per gram of tissue at 240 to 370 kBq, iv after 60 mins; type: ADME, organism-based; conditions: in vivo, 1 h
# Spleen [23] = assay: Biodistribution in S180 tumor-bearing KM mouse spleen assessed per gram of tissue at 240 to 370 kBq, iv after 30 mins; type: ADME, organism-based; conditions: in vivo, 0.5 h
# Spleen [24] = assay: Biodistribution in S180 tumor-bearing KM mouse spleen assessed per gram of tissue at 240 to 370 kBq, iv after 60 mins; type: ADME, organism-based; conditions: in vivo, 1 h
# Liver [25] = assay: Biodistribution in S180 tumor-bearing KM mouse liver assessed per gram of tissue at 240 to 370 kBq, iv after 30 mins; type: ADME, organism-based; conditions: in vivo, 0.5 h
# [26] = Biodistribution in S180 tumor present in KM mouse assessed per gram of tissue at 240 to 370 kBq, iv after 120 mins; type: ADME, organism-based, Neoplasm; conditions: in vivo, 2 h
# Lung [27] = assay: Biodistribution in S180 tumor-bearing KM mouse lung assessed per gram of tissue at 240 to 370 kBq, iv after 5 mins; type: ADME, organism-based; conditions: in vivo
# [28] = Ratio of drug level in S180 tumor to blood in KM mouse at 240 to 370 kBq, iv after 15mins; type: ADME, organism-based; conditions: tumour, 0.25 h
# Liver [29] = assay: Biodistribution in S180 tumor-bearing KM mouse liver assessed per gram of tissue at 240 to 370 kBq, iv after 120 mins; type: ADME, organism-based; conditions: in vivo, 2 h
# Muscle tissue [30] = assay: Biodistribution in S180 tumor-bearing KM mouse muscle assessed per gram of tissue at 240 to 370 kBq, iv after 5 mins; type: ADME, organism-based; conditions: in vivo
# Kidney [31] = assay: Biodistribution in S180 tumor-bearing KM mouse kidney assessed per gram of tissue at 240 to 370 kBq, iv after 120 mins; type: ADME, organism-based; conditions: in vivo, 2 h
# Liver [32] = assay: Biodistribution in S180 tumor-bearing KM mouse liver assessed per gram of tissue at 240 to 370 kBq, iv after 60 mins; type: ADME, organism-based; conditions: in vivo, 1 h
# Heart [33] = assay: Biodistribution in S180 tumor-bearing KM mouse heart assessed per gram of tissue weight at 240 to 370 kBq, iv after 15 mins; type: ADME, organism-based; conditions: in vivo, 0.25 h
# Brain [34] = assay: Biodistribution in S180 tumor-bearing KM mouse brain assessed per gram of tissue at 240 to 370 kBq, iv after 15 mins; type: ADME, organism-based; conditions: in vivo, 0.25 h
# [35] = Ratio of drug level in S180 tumor to muscleKM mouse at 240 to 370 kBq, iv after 60 mins; type: ADME, organism-based, KM; conditions: in vivo, 1 h
# Heart [36] = assay: Biodistribution in S180 tumor-bearing KM mouse heart assessed per gram of tissue weight at 240 to 370 kBq, iv after 30 mins; type: ADME, organism-based; conditions: in vivo, 0.5 h
# [37] = Biodistribution in S180 tumor present in KM mouse assessed per gram of tissue at 240 to 370 kBq, iv after 30 mins; type: ADME, organism-based, Neoplasm; conditions: in vivo, 0.5 h
# [38] = Ratio of drug level in S180 tumor to muscleKM mouse at 240 to 370 kBq, iv after 5 mins; type: ADME, organism-based, KM; conditions: in vivo
# [39] = Ratio of drug level in S180 tumor to blood in KM mouse at 240 to 370 kBq, iv after 60 mins; type: ADME, organism-based; conditions: tumour, 1 h
# [40] = Ratio of drug level in S180 tumor to blood in KM mouse at 240 to 370 kBq, iv after 120 mins; type: ADME, organism-based; conditions: tumour, 2 h
# Lung [41] = assay: Biodistribution in S180 tumor-bearing KM mouse lung assessed per gram of tissue at 240 to 370 kBq, iv after 120 mins; type: ADME, organism-based; conditions: in vivo, 2 h
# Blood [42] = assay: Biodistribution in S180 tumor-bearing KM mouse blood assessed per gram of tissue weight at 240 to 370 kBq, iv after 120 mins; type: ADME, organism-based; conditions: in vivo, 2 h
# [43] = Biodistribution in S180 tumor present in KM mouse assessed per gram of tissue at 240 to 370 kBq, iv after 60 mins; type: ADME, organism-based, Neoplasm; conditions: in vivo, 1 h
smiles,measurement,setting,value
CC(C)[C@H](NC(=O)c1ccc([N+](=O)[O-])cc1[18F])C(=O)O,tumor/muscle ratio,[1],2.62
same,tumor/brain ratio,[2],9.38
same,tumor/blood ratio,[3],0.56
same,Drug uptake,Blood [4],2.43 %ID
same,Drug uptake,Brain [5],0.04 %ID
same,Drug uptake,Lung [6],1.38 %ID
same,Drug uptake,[7],1.37 %ID
same,tumor/brain ratio,[8],13.3
same,Drug uptake,Blood [9],0.15 %ID
same,Drug uptake,Brain [10],0.03 %ID
same,tumor/muscle ratio,[11],0.66
same,Drug uptake,Liver [12],3.35 %ID
same,Drug uptake,[13],0.91 %ID
same,Drug uptake,Liver [14],6.54 %ID
same,Drug uptake,Kidney [15],0.45 %ID
same,Drug uptake,Kidney [16],5.19 %ID
same,Drug uptake,Spleen [17],1.04 %ID
same,tumor/brain ratio,[18],6.9
same,Drug uptake,Heart [19],1.07 %ID
same,tumor/muscle ratio,[20],1.95
same,tumor/brain ratio,[21],9.99
same,Drug uptake,Muscle tissue [22],0.15 %ID
same,Drug uptake,Spleen [23],0.31 %ID
same,Drug uptake,Spleen [24],0.24 %ID
same,Drug uptake,Liver [25],1.59 %ID
same,Drug uptake,[26],0.08 %ID
same,Drug uptake,Lung [27],5.04 %ID
same,tumor/blood ratio,[28],0.72
same,Drug uptake,Liver [29],0.5 %ID
same,Drug uptake,Muscle tissue [30],0.99 %ID
same,Drug uptake,Kidney [31],0.3 %ID
same,Drug uptake,Liver [32],0.77 %ID
same,Drug uptake,Heart [33],0.72 %ID
same,Drug uptake,Brain [34],0.09 %ID
same,tumor/muscle ratio,[35],1.74
same,Drug uptake,Heart [36],0.29 %ID
same,Drug uptake,[37],0.56 %ID
same,tumor/muscle ratio,[38],1.38
same,tumor/blood ratio,[39],1.83
same,tumor/blood ratio,[40],1.3
same,Drug uptake,Lung [41],0.57 %ID
same,Drug uptake,Blood [42],0.06 %ID
same,Drug uptake,[43],0.27 %ID
